Measurements from EP0145303A1, “Glycerol derivatives” (ONO PHARMACEUTICAL CO., LTD., priority 1983, dated 1985).

Tests used:
[1] = molecular target: PAF (10 nM)-induced aggregation (Cavia porcellus, UniProt P21556); test: Inhibitory effect on PAF-induced platelet aggregation (platelet rich plasma, absorbancy method, aggregometer of Born); type: cell-based; details: male guinea pig platelet rich plasma
Protocol: Whole blood of male guinea pig was collected with a 3.8% aqueous solution of trisodium citrate in a proportion of 9:1 (v/v) and the mixture was centrifuged (120 x g) for 10 minutes at room temperature to obtain platelet rich plasma. Using obtained plasma, PAF (10 nM)-induced aggregation was determined by the absorbancy method using an aggrego-meter of Born [cf. J. Physiol., 162, 67 (1962)].
The evaluation is conducted using the concentration of compounds of the present invention required to produce a 50% inhibition of each effect, i.e. IC50.

[2] = tested on: mice; test: Acute toxicity by intravenous administration; type: in vivo; details: five mice, intravenous to tail vein, dose of 100 mg/Kg
Protocol: On the other hand, it was confirmed that the acute toxicity of all extent of the compounds of the present invention was more than 100 mg/Kg by intravenous administration. Therefore, glycerol derivatives of the present invention may be considered to be sufficiently safe and suitable for medical use. For example, the mortality (daed/used) in glycerol derivatives of the present invention, i.e. compounds prepared in Example 4 was 0/5, when glycerol derivatives was intravenous administered to tail vein in five mice at the dose of 100 mg/Kg.

Chain of PAF (10 nM)-induced aggregation (P21556 whole entry): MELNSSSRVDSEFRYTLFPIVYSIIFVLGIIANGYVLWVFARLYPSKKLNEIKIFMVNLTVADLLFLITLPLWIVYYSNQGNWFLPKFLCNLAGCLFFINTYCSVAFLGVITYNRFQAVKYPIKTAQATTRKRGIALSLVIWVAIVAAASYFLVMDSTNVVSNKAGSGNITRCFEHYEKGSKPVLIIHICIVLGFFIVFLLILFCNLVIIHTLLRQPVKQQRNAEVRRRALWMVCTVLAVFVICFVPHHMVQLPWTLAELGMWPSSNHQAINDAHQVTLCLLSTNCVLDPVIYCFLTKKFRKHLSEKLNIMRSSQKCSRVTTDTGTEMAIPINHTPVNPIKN

| SMILES | IC50 [1] | mortality (daed/used) [2] |
| --- | --- | --- |
| CCCCCCCCCCCCCCCCOCC(COc1ccc(CCCC[N+](C)(C)C)cc1)OC(C)=O (centres unmarked) [Example 2] | 5 µM | – |
| CCCCCCCCCCCCCCCCOCC(COc1ccc(CCCC[N+](C)(C)C)cc1)NC(=O)OCC(C)C (centres unmarked) [Example 4] | – | 0/5 |

More lines, main results first:

| IC50 [1] | SMILES | mortality (daed/used) [2] |
| --- | --- | --- |
| 3.7 µM | CCCCCCCCCCCCCCCCOCC(COCCCc1ccc([N+](C)(C)C)cc1)NC(=O)OCC(C)C (racemic) [Example 9] | – |
| 4.7 µM | CCCCCCCCCCCCCCCCOCC(COc1ccc(CCCC[N+](C)(C)C)cc1)NC(=O)NC (centres unmarked) [5(a)] | – |
| 6.7 µM | CCCCCCCCCCCCCCCCOCC(COc1ccc(CCCC[N+](C)(C)C)cc1)NC(C)=O (centres unmarked) [Example 5] | – |
